Here are results for three molecules from patent US6624156B2, “Methods of making and method of using hybrid cholinergic agents and compositions” (Board of Trustees of the University of Arkansas, priority 2001, dated 2003).

As usually defined, the IC50 is the point on the concentration scale where inhibition reaches its midpoint.

The target in assay [1] is T1, M3 muscarinic receptor (Rattus norvegicus, UniProt P08483).
T1 construct: host or cells: CHO cells
Nature of the assay: Inhibition of 3H-N-methylscopolamine binding to CHO cells expressing M3 muscarinic receptors. The following applies: for IC50: read-out: IC50 (inhibition of 3H-NMS binding), CHO cells expressing M3, 0.6 nM 3H-NMS, 45 min 37° C., mean±SE of at least three assays. As to the method: The objective of this experiment was to evaluate whether LCC interacted with muscarinic M3 receptors. CHO cells expressing M3 muscarinic receptors were obtained from the American Type Culture Collection (ATCC), MD. The interaction of LCC with the M3 receptors was determined by an assay which measures inhibition of ^3H-N-methylscopolamine (^3H-NMS) binding to the M3 receptor. […] Lithocholyltaurine and lithocholylglycine are physiological conjugates of lithocholic acid.
5×10^5 CHO cells (0.5 ml) were incubated for 45 minutes at 37° C. with 0.6 nM ^3H-NMS alone or with unlabeled ligand. Nonspecific binding was determined in the presence of 10.0 μM unlabeled NMS. The reaction was terminated by centrifuging 0.5 ml of cell suspension at 10,000 g for 7 minutes at room temperature. 100 μl of supernatant was sampled for determination of free ligand concentration, and the remaining liquid was carefully decanted. The cell pellet was washed, drained, and dissolved in 100 μl Soluene 350.

For assay [2], the target named is T1, M3 muscarinic receptor. Nature of the assay: Acetylcholine-induced inositol phosphate (IP) formation in CHO-M3 cells. The class given is cell-based. On the procedure:
Post-receptor (downstream) actions of LCC were determined by measuring increases in inositol phosphates (IP) after incubating cells with 3H-myo-inositol. CHO cell inositol 1,4,5-triphosphate (IP3) was determined by the methods of Hu and El-Fakahany (1990, Mol. Pharmacol. 38:895-903) and Labarca et al., (1987, Methods Enzymol. 141:192-201). 5×10^4 cells/well were incubated with 1.0 μCi/ml myo-[2-^3H]inositol for 24 hour at 37° C., treated with 20 mM LiCl for 30 minutes at 37° C. Cells were then incubated with the test agents for 30 minutes at 37° C. The IP3 fraction was separated by ion-exchange chromatography (AG2 X8 resin), and the dpm in this fraction were determined by liquid scintillation.
The highest LCC concentration tested (0.1 mM) reduced ACh-induced IP production by 80%, thereby confirming competition of LCC and ACh for the same receptor, indicating interaction of LCC and ACh with the same receptor. Thus, LCC is an M3 muscarinic receptor antagonist.

T1 sequence (P08483 whole entry): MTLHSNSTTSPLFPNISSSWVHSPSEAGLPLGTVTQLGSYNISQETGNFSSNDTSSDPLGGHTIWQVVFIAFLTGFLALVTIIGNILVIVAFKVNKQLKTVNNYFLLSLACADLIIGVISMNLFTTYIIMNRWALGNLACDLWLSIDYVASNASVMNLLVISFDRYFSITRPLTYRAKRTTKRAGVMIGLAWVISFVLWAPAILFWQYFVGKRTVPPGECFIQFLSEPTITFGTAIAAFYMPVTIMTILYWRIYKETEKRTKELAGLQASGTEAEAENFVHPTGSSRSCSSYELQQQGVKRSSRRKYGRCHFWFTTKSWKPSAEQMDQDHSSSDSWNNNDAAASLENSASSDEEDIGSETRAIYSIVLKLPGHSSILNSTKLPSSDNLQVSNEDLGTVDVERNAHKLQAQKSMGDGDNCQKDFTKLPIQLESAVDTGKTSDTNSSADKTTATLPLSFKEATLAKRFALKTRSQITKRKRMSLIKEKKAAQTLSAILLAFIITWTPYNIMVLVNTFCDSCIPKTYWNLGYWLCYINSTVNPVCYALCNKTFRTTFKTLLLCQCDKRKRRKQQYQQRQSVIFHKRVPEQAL

On to `C[C@H](CCC(=O)NCCS(=O)(=O)O)[C@H]1CC[C@H]2[C@@H]3CC[C@@H]4C[C@H](O)CC[C@]4(C)[C@H]3CC[C@]12C` [Lithocholyltaurine, lithocholyltaurine, reference compound], for which, at M3 muscarinic receptor [1], the IC50 was found to be 165 ± 38.5 µM.

In the case of `C[C@H](CCC(=O)NCC(=O)O)[C@H]1CC[C@H]2[C@@H]3CC[C@@H]4C[C@H](O)CC[C@]4(C)[C@H]3CC[C@]12C` [Lithocholylglycine, reference compound], on M3 muscarinic receptor [1], the IC50 worked out at 228 ± 41.2 µM.

`C[C@H](CCC(=O)OCC[N+](C)(C)C)[C@H]1CC[C@H]2[C@@H]3CC[C@@H]4C[C@H](O)CC[C@]4(C)[C@H]3CC[C@]12C` [LCC, lithocholylcholine]: the “potency relative to acetylcholine at inhibiting 3H-NMS binding” value on M3 muscarinic receptor [1] (LCC vs acetylcholine) is reported as “about 2 times”. Moreover, the “potency relative to carbachol at inhibiting 3H-NMS binding” value on M3 muscarinic receptor [1] (LCC vs carbachol) is “about 60 times”. Besides, the IC50 at M3 muscarinic receptor [1] was determined as 6.4 ± 0.8 µM. For the same molecule, the “inhibition of ACh-induced IP formation compared with equal concentrations of LCT” value against M3 muscarinic receptor [2] (10.0 μM acetylcholine) is reported as “overall greater extent”. Besides, at M3 muscarinic receptor [2] (0.1 mM LCC, 10.0 μM acetylcholine), the “reduction of ACh-induced IP production” value stood at 80%. At M3 muscarinic receptor [2] (LCC alone), the “effect of agent alone on IP formation” value is “not alter IP formation”.
